# Reference: paper PMC4728068, “Mixture Effects of Estrogenic Pesticides at the Human Estrogen Receptor α and β” (PLoS ONE, 2016)
# Columns and labels:
# hERβ = biological target: T1, hERβ (Homo sapiens, UniProt Q92731); experiment: ERβ CALUX assay (U2-OS cell-based luciferase reporter gene); conditions: for estrogenic activity at the hERβ in the ERβ CALUX assay (in words): applied alone; for ERβ CALUX EC01 / ERβ CALUX EC10: single substances; for ERβ CALUX EC01: 1% effect (of 1 nM E2); for ERβ CALUX EC10: 10% effect (of 1 nM E2)
# T1 construct: expressed in transfected cells; host or cells: human U2-OS cells
# Method: (§1) The ERα and ERβ CALUX assay were performed to evaluate the effect of the test substances on the hERα and hERβ as described by van der Burg et al. [21] with slight modifications. The pesticides were tested in three independent experiments, individually and as mixtures, in triplicates in 96-well plates. DMSO was used as solvent and was present in the test medium at a maximal concentration of 0.2% v/v. Solvent controls were included in each plate. […] The same plate also contained 3 μM 17α-methyltestosterone as additional estrogenic control as well as 10 nM corticosterone as negative control. […] A prescreen, in which all test substances were tested for estrogenicity between 0.01 μM and 60 μM, was performed. The three highest test substance concentrations and controls were checked for their ability to affect cell membrane integrity by quantification of the lactate dehydrogenase leakage (LDH) with the CytoTox-ONE™ Homogeneous Membrane Integrity Assay (Promega, Madison, WI, USA), which was performed as recommended by the manufacturer. Those test substance concentrations leading to a decline of the effect after a maximum was reached as well as those leading to insolubility were excluded from further experiments.
# (§2) Normalized concentration-response data from the YES, ERα and ERβ CALUX assays were analyzed by nonlinear regression after the x-axis with the test substance concentrations was log-transformed. […] All mathematical/statistical analyses were performed using R version 3.1.2 (R Foundation for Statistical Computing, Vienna, Austria).
# [1] = Insolubility in the YES assay medium (turbidity at 690 nm, cell-free control plate); conditions: for solubility: kinetic from dmso stock
# From the text: (§3) It should be taken into account that an increased turbidity could also mask cytotoxicity.
# The concentrations of the test substances to be tested were limited depending on their solubility. […] A decrease of turbidity in the YES assay was assumed to be equivalent to an inhibition of yeast cell growth.
# [2] = biological target: T2, human estrogen receptor α (hERα) (Homo sapiens, UniProt P03372); experiment: Yeast-based estrogen screen (YES) assay, β-galactosidase reporter gene; type: cell-based; conditions: for YES EC01 / YES EC10: single substances; for YES EC01: concentration needed to elicit a 1% effect of 1 nM E2; for YES EC10: concentration needed to elicit a 10% effect of 1 nM E2
# T2 construct: expressed in transfected cells
# Method: as §3, §2
# hERα [3] = biological target: T3, hERα (Homo sapiens, UniProt P03372); experiment: YES assay in combination with a saturating concentration of E2 (1 nM): anti-estrogenic or potentiating effects; type: cell-based, yeast; conditions: for maximum to which the effect of 1 nM E2 was enhanced: YES assay, combined with 1 nM E2, normalized to 1 nM E2; for effect when combined with 1 nM E2 in the YES assay (in words): saturating 1 nM E2
# Method: Each pesticide and pesticide mixture was tested in quadruplicate in at least five experiments.
# MCF-7 cells [4] = tested on: MCF-7 cells; parameters: method as in PMID 10789375; conditions: cited from earlier work
# hERα [5] = biological target: T3, hERα; experiment: ERα CALUX assay (U2-OS cell-based luciferase reporter gene); parameters: expressed in transfected cells; host or cells: human U2-OS cells; conditions: for ERα CALUX EC01: 1% effect (of 1 nM E2); for ERα CALUX EC10: 10% effect (of 1 nM E2)
# Method: as §1, §2
# yeast cells = experiment: Cytotoxicity in the YES assay (decrease in optical density/turbidity at 690 nm); type: cell-based; conditions: assumed equivalent to inhibition of yeast cell growth, data not shown
# miR-21 = conditions: cited from earlier work
# MCF-7 cells [6] = conditions: cited from earlier work
# hERα [7] = biological target: T3, hERα; conditions: in combination with 3 pM E2
# MCF-7 cells [8] = conditions: with or without E2; 27 (pirimicarb), ref 11 (propamocarb); cited from earlier work
# estrogen receptor = tested on: estrogen receptor; parameters: method as in PMID 11884232; conditions: in combination with a saturating concentration of E2; cited from earlier work
# T3 sequence (P03372 whole entry): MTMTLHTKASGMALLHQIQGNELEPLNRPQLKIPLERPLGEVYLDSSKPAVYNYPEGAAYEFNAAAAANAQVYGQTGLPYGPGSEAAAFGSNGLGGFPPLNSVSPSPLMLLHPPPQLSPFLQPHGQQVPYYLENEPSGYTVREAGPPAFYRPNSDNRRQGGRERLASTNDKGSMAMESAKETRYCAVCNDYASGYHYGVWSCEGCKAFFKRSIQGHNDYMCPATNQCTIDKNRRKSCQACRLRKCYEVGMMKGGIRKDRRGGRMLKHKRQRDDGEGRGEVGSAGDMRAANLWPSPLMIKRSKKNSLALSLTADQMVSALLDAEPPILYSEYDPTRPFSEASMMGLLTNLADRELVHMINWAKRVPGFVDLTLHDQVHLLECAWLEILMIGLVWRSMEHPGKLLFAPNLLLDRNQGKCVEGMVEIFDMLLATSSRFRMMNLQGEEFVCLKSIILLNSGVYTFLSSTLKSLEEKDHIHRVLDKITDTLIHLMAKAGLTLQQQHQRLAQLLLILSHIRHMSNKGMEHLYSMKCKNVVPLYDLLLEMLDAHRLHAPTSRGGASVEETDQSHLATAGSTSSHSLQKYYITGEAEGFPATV
# T2 sequence (P03372 whole entry): as above
# T1 sequence (Q92731 whole entry): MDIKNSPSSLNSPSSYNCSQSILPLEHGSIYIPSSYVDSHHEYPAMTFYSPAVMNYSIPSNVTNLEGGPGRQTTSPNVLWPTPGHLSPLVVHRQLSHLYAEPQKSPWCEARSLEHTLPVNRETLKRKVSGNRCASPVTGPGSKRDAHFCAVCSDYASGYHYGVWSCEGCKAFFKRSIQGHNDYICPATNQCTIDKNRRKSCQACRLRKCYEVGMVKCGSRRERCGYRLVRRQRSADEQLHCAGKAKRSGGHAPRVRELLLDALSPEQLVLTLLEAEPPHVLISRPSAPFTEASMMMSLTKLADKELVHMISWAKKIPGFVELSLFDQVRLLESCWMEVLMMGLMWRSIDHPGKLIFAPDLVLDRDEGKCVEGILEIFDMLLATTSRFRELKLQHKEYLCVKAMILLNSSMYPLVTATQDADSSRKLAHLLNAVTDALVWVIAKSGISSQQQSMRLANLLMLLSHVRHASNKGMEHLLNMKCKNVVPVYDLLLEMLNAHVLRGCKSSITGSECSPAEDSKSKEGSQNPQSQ
Structure (SMILES),estrogenic activity at the hERβ in the ERβ CALUX assay (in words) (hERβ),ERβ CALUX EC01 (hERβ) [µM],ERβ CALUX EC10 (hERβ) [µM],YES EC01 [2] [nM],ERα CALUX EC01 (hERα [5]; single substances) [nM],ERα CALUX EC10 (hERα [5]; single substances) [µM],solubility [1] [µM],further results
"Clc1ccc(C(c2ccccc2Cl)C(Cl)(Cl)Cl)cc1 (stereo not shown) [2,4’-DDT, 2,4’-dichlorodiphenyltrichloroethane]",dose-dependent estrogenic activity,0.055,0.603,,,,,
"Clc1ccc(C(c2ccc(Cl)cc2)C(Cl)(Cl)Cl)cc1 [4,4’-DDT, 4,4’- dichlorodiphenyltrichloroethane]",dose-dependent estrogenic activity,1.02,,,,,,concentrations leading to insolubility (tested in the YES assay) ([1]; YES assay medium): 50 to 500 µM
CCOP(=S)(OCC)Oc1nc(Cl)c(Cl)cc1Cl [chlorpyrifos],,,,79.4,617,3.47,100 to 1000,maximum to which the effect of 1 nM E2 was enhanced (hERα [3]): 1.84; effect in MCF-7 proliferation assay compared with E2 (MCF-7 cells [4]): without exceeding the effect of E2
OC(c1ccc(Cl)cc1)(c1cncnc1)c1ccccc1Cl (stereo not shown) [fenarimol],dose-dependent estrogenic activity,3.63,13.5,11700,794,2.82,,"maximum effect normalized to the effect of 1 nM E2 ([2]; single substance, YES assay): 2.69; YES EC10 [2]: 21.9 µM; maximum to which the effect of 1 nM E2 was enhanced (hERα [3]): 4.36; effect in MCF-7 proliferation assay compared with E2 (MCF-7 cells [4]): without exceeding the effect of E2; maximum effect relative to the effect of 0.1 nM E2 (hERα [5]; single substances, ERα CALUX assay): 1.17"
CC1(C(=O)Nc2ccc(O)c(Cl)c2Cl)CCCCC1 [fenhexamid],dose-dependent estrogenic activity,1.17,5.01,,,,100,concentrations decreasing turbidity by more than 30% in comparison to the solvent control (yeast cells): ≥ 500 µM; miR-21 expression in breast cancer cells (miR-21): increase of miR-21 expression; E2-induced cell proliferation in MCF-7 cells (MCF-7 cells [6]): inhibition of E2-induced cell proliferation
N#Cc1c[nH]cc1-c1cccc2c1OC(F)(F)O2 [fludioxonil],,,,832,363,1.26,100 to 500,YES EC10 [2]: 26.3 µM; inhibition of the E2 effect in the YES assay (hERα [3]; in combination with 1 nM E2): 44%; effect when combined with 1 nM E2 in the YES assay (in words) (hERα [3]): concentration-dependent anti-estrogenic effects; anti-estrogenic effect in the ERα CALUX assay (in words) (hERα [7]): an anti-estrogenic effect was not observed; miR-21 expression in breast cancer cells (miR-21): increase of miR-21 expression; E2-induced cell proliferation in MCF-7 cells (MCF-7 cells [6]): inhibition of E2-induced cell proliferation
Cc1nc(N(C)C)nc(OC(=O)N(C)C)c1C [pirimicarb],,,,,,,,estrogenic activity in the YES assay (in words) ([2]; applied alone): negative; effect when combined with 1 nM E2 in the YES assay (in words) (hERα [3]): negative; proliferation of MCF-7 cells in the E-Screen (MCF-7 cells [8]): did not stimulate the proliferation of MCF-7 cells; effect in transactivation assay with MCF-7 BOS cells (estrogen receptor): induced a stronger effect; estrogenic activity in the ERα CALUX assay (in words) (hERα [5]; applied alone): negative
CCCOC(=O)NCCCN(C)C [propamocarb],,,,,,,,proliferation of MCF-7 cells in the E-Screen (MCF-7 cells [8]): did not stimulate the proliferation of MCF-7 cells
